Test results published in PubChem BioAssay AID1963825 (Molecular Pharmacology Branch, DTP, NCI, 2024).

Experiment: Anticancer human tumor 997537-175-T-J1-PDC patient-derived colon adenocarcinoma cell line growth inhibition [POLQ]
Conditions: 997537-175-T-J1-PDC complex spheroid viability, combination with POLQ inhibitors; for IC50: curve of first compound; for viability, T/C: stronger effect = lower value
How it was run: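 PDC + HUVEC + MSC complex spheroids; POLQ inhibitors ± partner drugs; top conc. at/near clinical Cmax, else 10 microM (SN-38 1 microM), half-log dilutions; 37 degrees C, 5% CO2.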

[1] = second compound 0.0316 µM, first compound 0.0316 µM
[2] = second compound 0.0316 µM, first compound 0.1 µM
[3] = second compound 0.0316 µM, first compound 0.316 µM
[4] = second compound 0.0316 µM, first compound 1 µM
[5] = second compound 0.0316 µM, first compound 3.16 µM
[6] = second compound 0.0316 µM, first compound 10 µM
[7] = second compound 0.1 µM, first compound 0.0316 µM
[8] = second compound 0.1 µM, first compound 0.1 µM
[9] = second compound 0.1 µM, first compound 0.316 µM
[10] = second compound 0.1 µM, first compound 1 µM
[11] = second compound 0.1 µM, first compound 3.16 µM
[12] = second compound 0.1 µM, first compound 10 µM
[13] = second compound 0.316 µM, first compound 0.0316 µM
[14] = second compound 0.316 µM, first compound 0.1 µM
[15] = second compound 0.316 µM, first compound 0.316 µM
[16] = second compound 0.316 µM, first compound 1 µM
[17] = second compound 0.316 µM, first compound 3.16 µM
[18] = second compound 0.316 µM, first compound 10 µM
[19] = second compound 1 µM, first compound 0.0316 µM
[20] = second compound 1 µM, first compound 0.1 µM
[21] = second compound 1 µM, first compound 0.316 µM
[22] = second compound 1 µM, first compound 1 µM
[23] = second compound 1 µM, first compound 3.16 µM
[24] = second compound 1 µM, first compound 10 µM
[25] = second compound 3.16 µM, first compound 0.0316 µM
[26] = second compound 3.16 µM, first compound 0.1 µM
[27] = second compound 3.16 µM, first compound 0.316 µM
[28] = second compound 3.16 µM, first compound 1 µM
[29] = second compound 3.16 µM, first compound 3.16 µM
[30] = second compound 3.16 µM, first compound 10 µM
[31] = second compound 10 µM, first compound 0.0316 µM
[32] = second compound 10 µM, first compound 0.1 µM
[33] = second compound 10 µM, first compound 0.316 µM
[34] = second compound 10 µM, first compound 1 µM
[35] = second compound 10 µM, first compound 3.16 µM
[36] = second compound 10 µM, first compound 10 µM
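Also: luminescence signal used as a surrogate for viable cells; spheroids exposed to drugs for seven days before readout.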

C=CC(=O)N1CCN(c2nc(=O)n(-c3c(C)ccnc3C(C)C)c3nc(-c4c(O)cccc4F)c(F)cc23)C(C)C1 (centres undefined) + COC1C(OC(N)=O)C(O)C(Oc2ccc3c(O)c(NC(=O)c4ccc(O)c(CC=C(C)C)c4)c(=O)oc3c2C)OC1(C)C showed an IC50 (second compound 0.0316 µM) of over 10 µM, an IC50 (second compound 0.1 µM) of over 10 µM and an IC50 (second compound 0.316 µM) of over 10 µM. It also gave an IC50 (second compound 1 µM) of over 10 µM, an IC50 (second compound 3.16 µM) of over 10 µM and an IC50 (second compound 10 µM) of over 10 µM. It also gave a viability, T/C [1] of 106%, a viability, T/C [2] of 108% and a viability, T/C [3] of 107%. The viability, T/C [4] was 112%, the viability, T/C [5] was 109% and the viability, T/C [6] was 91.7%. It also gave a viability, T/C [7] of 123%, a viability, T/C [8] of 125% and a viability, T/C [9] of 95.5%. It also gave a viability, T/C [10] of 91.5%, a viability, T/C [11] of 115% and a viability, T/C [12] of 108%. The viability, T/C [13] was 106%, the viability, T/C [14] was 95.6% and the viability, T/C [15] was 106%. The viability, T/C [16] was 105%, the viability, T/C [17] was 117% and the viability, T/C [18] was 93.8%. It also gave a viability, T/C [19] of 106%, a viability, T/C [20] of 113% and a viability, T/C [21] of 96.6%. For the same molecule, the viability, T/C [22] was 105%, the viability, T/C [23] was 109% and the viability, T/C [24] was 105%. The viability, T/C [25] was 105%, the viability, T/C [26] was 101% and the viability, T/C [27] was 115%. The viability, T/C [28] was 104%, the viability, T/C [29] was 101% and the viability, T/C [30] was 95.7%. The viability, T/C [31] was 96.3%, the viability, T/C [32] was 109% and the viability, T/C [33] was 93%. It also gave a viability, T/C [34] of 105%, a viability, T/C [35] of 104% and a viability, T/C [36] of 96.7%.

In the case of C#Cc1c(F)ccc2cc(O)cc(-c3ncc4c(N5CC6CCC(C5)N6)nc(OCC56CCCN5CC(F)C6)nc4c3F)c12 (centres undefined) + Nc1ccc(C#CCN(C(=O)Cc2ncc(C(F)(F)F)cc2C(F)(F)F)c2ccc(F)cc2)nn1, the IC50 (second compound 0.0316 µM) is reported as over 10 µM, the IC50 (second compound 0.1 µM) is reported as over 10 µM and the IC50 (second compound 0.316 µM) is reported as over 10 µM. The IC50 (second compound 1 µM) was over 10 µM, the IC50 (second compound 3.16 µM) was over 10 µM and the IC50 (second compound 10 µM) was over 10 µM. The viability, T/C [1] was 92.4%, the viability, T/C [2] was 93% and the viability, T/C [3] was 108%. The viability, T/C [4] was 106%, the viability, T/C [5] was 102% and the viability, T/C [6] was 96.5%. The viability, T/C [7] was 101%, the viability, T/C [8] was 110% and the viability, T/C [9] was 101%. For the same molecule, the viability, T/C [10] was 86.8%, the viability, T/C [11] was 94.1% and the viability, T/C [12] was 96.7%. It also gave a viability, T/C [13] of 105%, a viability, T/C [14] of 105% and a viability, T/C [15] of 101%. The viability, T/C [16] was 96.9%, the viability, T/C [17] was 103% and the viability, T/C [18] was 110%. The viability, T/C [19] was 106%, the viability, T/C [20] was 103% and the viability, T/C [21] was 95.8%. It also gave a viability, T/C [22] of 82.8%, a viability, T/C [23] of 106% and a viability, T/C [24] of 98.1%. For the same molecule, the viability, T/C [25] was 94.9%, the viability, T/C [26] was 103% and the viability, T/C [27] was 99.5%. For the same molecule, the viability, T/C [28] was 92.7%, the viability, T/C [29] was 104% and the viability, T/C [30] was 107%. The viability, T/C [31] was 104%, the viability, T/C [32] was 102% and the viability, T/C [33] was 100%. It also gave a viability, T/C [34] of 112%, a viability, T/C [35] of 98.8% and a viability, T/C [36] of 110%.
